Data on two compounds can be found in US11014902B2, “MYC G-quadruplex stabilizing small molecules and their use” (The United States of America, as represented by the …, priority 2015, dated 2021).

Test [1] deals with c-MYC expression in L363 cells. In words: Inhibition of c-MYC expression in L363 cells (Peggy). As to conditions: Homo sapiens, L-363, L363 cells, at 10 μM; read-out: Peggy (% c-Myc expression compared to untreated). In kind it is cell-based, human. The source says:
FIG. 10 illustrates an exemplary procedure for generating analogs of Compound 1. The amine group of Compound 1 can be varied in reductive aminations to provide additional analogs. […] The table also provides an indication of an exemplary commercial source for the compounds, or (if applicable) an indication that the compound is new.

Test [2] deals with MYC expression in L363 cells. Put plainly: Gene expression analysis (Nanostring, qPCR), MYC. In kind it is cell-based, human. As to conditions: for c-Myc expression (qPCR): L363 cells. As to the method:
Gene expression analysis was performed on a panel of 770 cancer-associated genes in a multiplexed (nanostring) transcriptional assay. In addition to c-MYC itself, several c-Myc target genes were included in the panel, as were a number of other quadruplex-driven genes. […] Additionally, a third data set was collected comparing Compound 1 treatment to JQ-1 (a BET-bromodomain inhibitor) and quarfloxin (another quadruplex-binding small molecule).
The effects of Compound 1 on a number of known quadruplex-driven genes in the panel were examined further (FIG. 6). Expression levels of MYC, RB1, VEGFA, KRAS, and HIF1α, all of which are reported to be under the control of promoter G4s, and are expressed in L363 cells, were included in the panel of genes evaluated by Nanostring as discussed above. […] These changes in gene expression are in line with biophysical measurements of compound affinity. Corresponding data showing similar results is presented for Compounds 1 and 23 in FIGS. 14A and 14B. […] These observations further highlight the ability of Compound 1 and Compound 23 to specifically target the expression of c-Myc and related pathways.
The phenotype for c-MYC genetic knockdown in multiple myeloma was achieved through lentiviral transduction of shRNA for c-MYC, derived from the spinoculation of 293T cells and plasmids grown in STBL3 E. coli, and isolated with the Qiagen Plasmid Midi Kit. Aliquots of the plasmids were generously provided by Art Shaffer. RNA of treated myeloma cells at designated time points was isolated with the Qiagen RNeasy kit, and used with the nCounter Human Cancer Reference Kit (NanoString Technologies), surveying changes in expression for […] cancer-related human genes and 6 reference genes. Quantitative changes in expression were analyzed and grouped in the form of a heat map using the programming language, R. All other quantitative statistical packing was performed in GraphPad Prism.
A general note: Real-time PCR tracks product formation cycle by cycle.

Test [3] deals with SK-MEL-2. In words: NCI-60 cell growth (SRB). In kind it is cell-based. Conditions: SK-MEL-2, Melanoma; 10 μM, 48 hours. As for the experimental part:
(§1) This example illustrates that Compounds 1 and 23 can be used in inhibit the growth of c-Myc expressing cancer cell lines in vitro. The NCI-60 panel of cancer cell lines (see Shoemaker, Nat. Rev. Cancer, 6, 813-823, 2006, and dtp.cancer.gov/discovery_development/nci-60/) was assayed for cell growth in the presence of 10 μM Compound 1 or Compound 23 for 48 hours. At 48 hours, the assay was terminated by fixation with TCA and determination of relative cell counts by addition of Sulforhodamine B (SRB, see Alley et al., Cancer Research, 48: 589-601, 1988.). Growth percent was determined by comparison of SRB reading of a duplicate plate of cells taken at the time of compound addition to the SRB reading at the termination of the treatment. The following table provides a summary of the percent of growth of each cell line in the panel compared to control (no treatment), as well as the mean delta and range of percent growth compared to control across the panel of cell lines for each treatment condition.

In test [4] the test system is HT29. Put plainly: NCI-60 cell growth (SRB). In kind it is cell-based. Conditions: HT29, Colon Cancer; 10 μM, 48 hours. As to the method:
as §1

In test [5] the test system is OVCAR-4. Put plainly: NCI-60 cell growth (SRB). It is filed as cell-based. Conditions: OVCAR-4, Ovarian Cancer; 10 μM, 48 hours. As to the method: as §1
The subject of test [6] is MDA-MB-468. In words: NCI-60 cell growth (SRB). In kind it is cell-based. As to conditions: MDA-MB-468, Breast Cancer; 10 μM, 48 hours. As for the experimental part: as §1
The subject of test [7] is MDA-MB-231/ATCC. Put plainly: NCI-60 cell growth (SRB). It is filed as cell-based. As to conditions: Breast Cancer, 10 μM, 48 hours. As for the experimental part:
as §1

Test [8] has as its system RXF 393. Put plainly: NCI-60 cell growth (SRB). In kind it is cell-based. Conditions: RXF 393, Renal Cancer; 10 μM, 48 hours. As to the method:
as §1

In test [9] the test system is MALME-3M. In words: NCI-60 cell growth (SRB). It is filed as cell-based. As to conditions: Melanoma, 10 μM, 48 hours. As to the method:
as §1

Test [10] deals with NCI-H460. Put plainly: NCI-60 cell growth (SRB). In kind it is cell-based. Conditions: NCI-H460, Non-Small Cell Lung Cancer; 10 μM, 48 hours. As to the method:
as §1

Test [11] relates to COLO 205. In words: NCI-60 cell growth (SRB). In kind it is cell-based. As to conditions: COLO 205, Colon Cancer; 10 μM, 48 hours. As for the experimental part:
as §1

Test [12] deals with SF-268. In words: NCI-60 cell growth (SRB). In kind it is cell-based. Conditions: SF-268, CNS Cancer; 10 μM, 48 hours. As to the method: as §1
Test [13] relates to HCT-15. Put plainly: NCI-60 cell growth (SRB). As to conditions: HCT-15, Colon Cancer; 10 μM, 48 hours. It is filed as cell-based. As to the method: as §1
Test [14] has as its system BT-549. Put plainly: NCI-60 cell growth (SRB). In kind it is cell-based. Conditions: BT-549, Breast Cancer; 10 μM, 48 hours. As to the method:
as §1

Test [15] relates to EKVX. Put plainly: NCI-60 cell growth (SRB). In kind it is cell-based. As to conditions: Non-Small Cell Lung Cancer, 10 μM, 48 hours. As to the method:
as §1

Test [16] has as its system MOLT-4. Put plainly: NCI-60 cell growth (SRB). In kind it is cell-based. As to conditions: MOLT-4, Leukemia; 10 μM, 48 hours. As to the method:
as §1

Test [17] has as its system MDA-MB-435. Put plainly: NCI-60 cell growth (SRB). It is filed as cell-based. Conditions: MDA-MB-435, Melanoma; 10 μM, 48 hours. As for the experimental part: as §1
Test [18] concerns ACHN. Put plainly: NCI-60 cell growth (SRB). In kind it is cell-based. As to conditions: Renal Cancer, 10 μM, 48 hours. As for the experimental part:
as §1

The test system of test [19] is SK-OV-3. In words: NCI-60 cell growth (SRB). Conditions: SK-OV-3, Ovarian Cancer; 10 μM, 48 hours. In kind it is cell-based. As for the experimental part: as §1
For test [20], the system named is HCC-2998. In words: NCI-60 cell growth (SRB). Conditions: HCC-2998, Colon Cancer; 10 μM, 48 hours. In kind it is cell-based. As for the experimental part:
as §1

Test [21] relates to HOP-62. In words: NCI-60 cell growth (SRB). As to conditions: HOP-62, Non-Small Cell Lung Cancer; 10 μM, 48 hours. In kind it is cell-based. As for the experimental part:
as §1

Test [22] has as its system HL-60(TB). In words: NCI-60 cell growth (SRB). Conditions: Leukemia, 10 μM, 48 hours. In kind it is cell-based. As to the method:
as §1

Where [23] appears, read: 48 hours, 10 μM BRACO-19, 10 μM Compound 1, 7.5 μM Compound 23.

For the compound `Cc1oc2ccc(O)c(CN3CCCCCC3)c2c1C(=O)Nc1ccc(C(F)(F)F)cc1` [Compound 23], the activity at 10 µM in test [1] stood at 0.44%. In addition, the “c-Myc expression (qPCR)” value was “reduced c-Myc expression” in test [2] (5 μM, 24 or 48 hours) and “reduced c-Myc expression” in test [2] (setting [23]). Moreover, the “Growth Percent” value in test [3] turned out to be 78.38%; in [4], 80.45%; in [5], 58.58%; in test [6], 5.74%; in [7] it was 48.96%; in test [8], 50.40%. In addition, the “Growth Percent” value in [9] worked out at 49.92%; in test [10], 51.53%; in test [11] it was 48.73%; in test [12] it was 75.44%; in test [13], 45.06%; in test [14], 78.51%. For the same compound, the “Growth Percent” value in [15] worked out at 64.06%; in test [16] it was 64.31%; in [17], 58.22%; in test [18], 68.48%; in [19], 76.35%; in [20] it was 11.22%. Besides, the “Growth Percent” value in test [21] is 70.39%; in test [22], 83.01%.
In the case of `Cc1ccc(NC(=O)c2c(C)oc3ccc(O)c(CN4CCCCCC4)c23)cc1` [Compound 1], in test [1], the activity at 10 µM amounted to 50%. In test [2] (10 μM, 2 h to 48 h), the “MYC expression (nanostring)” value was “substantially reduced”. For the same compound, the “MYC expression (qPCR)” value in test [2] (5, 10 or 12.5 μM, 48 hours) was “greatly reduced”. Further, the “c-Myc expression (qPCR)” value in test [2] (setting [23]) is on record as “reduced c-Myc expression”. The “Growth Percent” value in [3] was 99.26%; in test [4], 100.25%; in test [5], 82.06%; in [6] it was 73.62%; in [7] it was 79.39%; in test [8], 81.36%. Besides, the “Growth Percent” value came out at 107.60% in test [9]; 80.25% in test [10]; 104.20% in test [11]; 100.73% in test [12]; 83.45% in test [13]; 92.88% in [14]. The “Growth Percent” value was 83.79% in [15]; 92.81% in test [16]; 95.94% in test [17]; 93.94% in test [18]; 100.26% in [19]; 116.36% in [20]. For the same compound, the entries for the “Growth Percent” value in [21] and in [22] were 79.76% and 92.74%, respectively.
